The values that follow come from paper PMC9927415, “Tyrosine Kinase Inhibitors Display Potent Activity against Cryptosporidium parvum” (Microbiology Spectrum, 2022).

As usually defined, the inhibition is how much of the control response was suppressed.

Common to all, as to experiment: KINOMEscan competitive binding
One experiment concerns the target T1, RPS6KA6(Kin.Dom.1) (Homo sapiens, UniProt Q9UK32).
T1 construct: RPS6KA6(Kin.Dom.1); purchased DiscoverX (KINOMEscan)
The following applies: n=1, read-out: Percent inhibition, RPS6KA6(Kin.Dom.1).

The next experiment deals with T2, TNK2 (Homo sapiens, UniProt Q07912).
T2 construct: purchased DiscoverX (KINOMEscan)
The following applies: n=1, read-out: Percent inhibition, TNK2.

For a further experiment, the target named is T3, PAK3 (Homo sapiens, UniProt O75914).
T3 construct: purchased DiscoverX (KINOMEscan)
The following applies: n=1, read-out: Percent inhibition, PAK3.

The next experiment has as its target T4, PTK6 (Homo sapiens, UniProt Q13882).
T4 construct: purchased DiscoverX (KINOMEscan)
The following applies: n=1, read-out: Percent inhibition, PTK6.

In another experiment the target is T5, SLK (Homo sapiens, UniProt Q9H2G2).
T5 construct: purchased DiscoverX (KINOMEscan)
The following applies: n=1, read-out: Percent inhibition, SLK.

The target of the next experiment is T6, PRKG2 (Homo sapiens, UniProt Q13237).
T6 construct: purchased DiscoverX (KINOMEscan)
T6 sequence (Q13237 1-762): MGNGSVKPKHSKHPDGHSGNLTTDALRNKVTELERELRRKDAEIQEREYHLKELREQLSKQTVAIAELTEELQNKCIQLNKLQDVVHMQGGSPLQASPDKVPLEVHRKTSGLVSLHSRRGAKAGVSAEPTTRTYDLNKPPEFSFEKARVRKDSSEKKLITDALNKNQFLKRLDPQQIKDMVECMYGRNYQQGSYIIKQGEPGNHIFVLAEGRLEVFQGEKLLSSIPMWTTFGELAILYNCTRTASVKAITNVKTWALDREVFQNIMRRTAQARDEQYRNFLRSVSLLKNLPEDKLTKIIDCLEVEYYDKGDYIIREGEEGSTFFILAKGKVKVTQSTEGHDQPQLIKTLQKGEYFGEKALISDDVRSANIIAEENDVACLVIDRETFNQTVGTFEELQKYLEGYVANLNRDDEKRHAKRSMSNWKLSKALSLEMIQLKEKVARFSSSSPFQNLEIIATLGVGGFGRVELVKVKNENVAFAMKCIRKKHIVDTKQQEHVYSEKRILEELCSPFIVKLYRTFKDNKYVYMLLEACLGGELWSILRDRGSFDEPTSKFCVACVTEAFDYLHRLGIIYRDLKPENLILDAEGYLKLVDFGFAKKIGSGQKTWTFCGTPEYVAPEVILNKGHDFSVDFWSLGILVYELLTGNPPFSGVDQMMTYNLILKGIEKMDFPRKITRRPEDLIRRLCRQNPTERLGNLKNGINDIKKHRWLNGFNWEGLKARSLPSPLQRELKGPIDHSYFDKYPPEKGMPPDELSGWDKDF
The following applies: n=1, read-out: Percent inhibition, PRKG2.

A further experiment has as its target T7, PCTK1 (Homo sapiens, UniProt Q00536).
T7 construct: purchased DiscoverX (KINOMEscan)
The following applies: n=1, read-out: Percent inhibition, PCTK1.

The next experiment addresses T8, TRKA (Homo sapiens, UniProt P04629).
T8 construct: purchased DiscoverX (KINOMEscan)
The following applies: n=1, read-out: Percent inhibition, TRKA.

A further experiment addresses T9, RPS6KA3(Kin.Dom.1) (Homo sapiens, UniProt P51812).
T9 construct: RPS6KA3(Kin.Dom.1); purchased DiscoverX (KINOMEscan)
Conditions: n=1, read-out: Percent inhibition, RPS6KA3(Kin.Dom.1).

In another experiment the target is T10, TLK1 (Homo sapiens, UniProt Q9UKI8).
T10 construct: purchased DiscoverX (KINOMEscan)
T10 sequence (Q9UKI8 1-766): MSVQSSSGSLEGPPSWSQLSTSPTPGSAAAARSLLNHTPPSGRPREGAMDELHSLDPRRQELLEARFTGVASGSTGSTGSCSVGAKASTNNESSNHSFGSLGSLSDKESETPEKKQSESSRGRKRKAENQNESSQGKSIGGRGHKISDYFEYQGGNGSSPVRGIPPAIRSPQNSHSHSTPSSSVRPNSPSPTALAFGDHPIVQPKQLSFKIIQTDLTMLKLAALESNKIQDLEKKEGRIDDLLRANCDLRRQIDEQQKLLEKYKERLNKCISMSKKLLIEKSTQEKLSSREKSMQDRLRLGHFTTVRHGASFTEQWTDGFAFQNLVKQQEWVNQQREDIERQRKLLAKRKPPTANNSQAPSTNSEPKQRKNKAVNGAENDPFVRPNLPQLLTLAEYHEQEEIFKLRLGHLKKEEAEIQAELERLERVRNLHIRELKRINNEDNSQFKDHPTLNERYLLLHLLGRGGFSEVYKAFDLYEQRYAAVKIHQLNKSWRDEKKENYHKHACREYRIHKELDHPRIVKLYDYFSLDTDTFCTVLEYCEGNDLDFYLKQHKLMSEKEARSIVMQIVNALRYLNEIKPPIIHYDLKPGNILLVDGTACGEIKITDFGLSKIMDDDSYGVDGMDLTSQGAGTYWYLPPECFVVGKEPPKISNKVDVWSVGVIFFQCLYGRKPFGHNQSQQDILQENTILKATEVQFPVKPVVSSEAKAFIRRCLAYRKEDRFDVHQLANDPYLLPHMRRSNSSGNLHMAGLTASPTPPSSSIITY
Conditions: n=1, read-out: Percent inhibition, TLK1.

For another experiment, the target named is T11, PAK1 (Homo sapiens, UniProt Q13153).
T11 construct: purchased DiscoverX (KINOMEscan)
Conditions: n=1, read-out: Percent inhibition, PAK1.

In another experiment the target is T12, TYK2(Kin.Dom.2) (Homo sapiens, UniProt P29597).
T12 construct: TYK2(Kin.Dom.2); purchased DiscoverX (KINOMEscan)
T12 sequence (P29597 889-1187 limits assumed): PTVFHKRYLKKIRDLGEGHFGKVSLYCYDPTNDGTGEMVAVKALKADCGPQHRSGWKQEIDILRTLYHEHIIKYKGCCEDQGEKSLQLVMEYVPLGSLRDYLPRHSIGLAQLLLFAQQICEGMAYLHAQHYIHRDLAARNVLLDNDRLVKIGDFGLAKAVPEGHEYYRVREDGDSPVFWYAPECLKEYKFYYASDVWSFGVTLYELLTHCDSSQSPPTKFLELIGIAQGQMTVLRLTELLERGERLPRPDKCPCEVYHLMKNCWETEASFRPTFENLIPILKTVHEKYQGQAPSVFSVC
Conditions: n=1, read-out: Percent inhibition, TYK2(Kin.Dom.2).

A further experiment concerns the target T13, PLK3 (Homo sapiens, UniProt Q9H4B4).
T13 construct: purchased DiscoverX (KINOMEscan)
The following applies: n=1, read-out: Percent inhibition, PLK3.

A further experiment concerns the target T14, PHKG1 (Homo sapiens, UniProt Q16816).
T14 construct: purchased DiscoverX (KINOMEscan)
Conditions: n=1, read-out: Percent inhibition, PHKG1.

T1 sequence (Q9UK32 1-400 limits assumed): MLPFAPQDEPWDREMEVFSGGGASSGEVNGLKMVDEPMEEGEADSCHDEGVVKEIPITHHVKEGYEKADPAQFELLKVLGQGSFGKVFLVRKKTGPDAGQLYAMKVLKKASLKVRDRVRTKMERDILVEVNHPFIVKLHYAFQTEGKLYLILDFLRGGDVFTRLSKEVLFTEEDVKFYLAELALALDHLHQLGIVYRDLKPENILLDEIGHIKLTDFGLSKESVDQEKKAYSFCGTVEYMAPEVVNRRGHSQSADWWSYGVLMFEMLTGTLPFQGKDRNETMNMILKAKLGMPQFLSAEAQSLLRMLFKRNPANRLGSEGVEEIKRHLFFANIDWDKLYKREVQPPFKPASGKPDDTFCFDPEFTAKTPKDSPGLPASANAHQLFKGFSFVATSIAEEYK
T14 sequence (Q16816 whole entry): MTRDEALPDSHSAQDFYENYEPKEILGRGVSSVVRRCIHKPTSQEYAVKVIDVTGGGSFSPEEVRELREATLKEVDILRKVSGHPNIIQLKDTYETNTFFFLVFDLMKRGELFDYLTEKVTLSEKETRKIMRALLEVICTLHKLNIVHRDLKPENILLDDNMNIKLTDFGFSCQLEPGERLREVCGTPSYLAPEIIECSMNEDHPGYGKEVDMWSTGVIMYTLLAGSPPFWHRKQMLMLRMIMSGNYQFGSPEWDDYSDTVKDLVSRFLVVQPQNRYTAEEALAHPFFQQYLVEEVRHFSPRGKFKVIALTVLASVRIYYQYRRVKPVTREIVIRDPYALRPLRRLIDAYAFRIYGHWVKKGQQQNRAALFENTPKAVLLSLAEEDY
T13 sequence (Q9H4B4 whole entry): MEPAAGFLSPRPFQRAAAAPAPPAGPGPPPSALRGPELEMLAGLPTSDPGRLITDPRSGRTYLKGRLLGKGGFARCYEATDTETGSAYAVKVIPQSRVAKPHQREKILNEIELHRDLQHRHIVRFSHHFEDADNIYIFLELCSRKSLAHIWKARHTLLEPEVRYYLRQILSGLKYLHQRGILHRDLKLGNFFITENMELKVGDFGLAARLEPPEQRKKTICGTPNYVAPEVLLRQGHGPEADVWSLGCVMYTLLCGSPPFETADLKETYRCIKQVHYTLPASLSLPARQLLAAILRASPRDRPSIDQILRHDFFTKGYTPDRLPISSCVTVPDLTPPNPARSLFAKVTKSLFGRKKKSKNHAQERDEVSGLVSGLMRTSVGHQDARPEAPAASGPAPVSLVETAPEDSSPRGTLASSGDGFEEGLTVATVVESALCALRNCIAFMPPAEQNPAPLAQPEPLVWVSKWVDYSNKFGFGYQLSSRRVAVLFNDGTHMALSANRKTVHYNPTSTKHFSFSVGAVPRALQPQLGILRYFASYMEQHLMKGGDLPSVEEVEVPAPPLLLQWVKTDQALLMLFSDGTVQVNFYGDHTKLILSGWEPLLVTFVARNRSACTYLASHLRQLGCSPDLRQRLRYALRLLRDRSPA
T11 sequence (Q13153 whole entry): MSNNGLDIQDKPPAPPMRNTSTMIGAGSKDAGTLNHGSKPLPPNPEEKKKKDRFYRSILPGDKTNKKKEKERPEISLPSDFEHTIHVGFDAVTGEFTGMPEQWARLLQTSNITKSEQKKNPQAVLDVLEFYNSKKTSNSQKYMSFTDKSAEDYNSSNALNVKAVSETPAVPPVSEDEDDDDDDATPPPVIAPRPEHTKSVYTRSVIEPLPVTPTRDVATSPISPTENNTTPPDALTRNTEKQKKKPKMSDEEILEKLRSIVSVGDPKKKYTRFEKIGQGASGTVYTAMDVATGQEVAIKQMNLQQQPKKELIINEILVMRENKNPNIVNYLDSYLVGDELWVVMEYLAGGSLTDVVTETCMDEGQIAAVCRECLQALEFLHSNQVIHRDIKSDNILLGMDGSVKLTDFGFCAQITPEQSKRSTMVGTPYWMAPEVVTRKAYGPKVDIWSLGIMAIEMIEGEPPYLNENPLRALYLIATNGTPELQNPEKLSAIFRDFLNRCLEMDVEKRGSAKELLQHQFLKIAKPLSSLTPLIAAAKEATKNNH
T4 sequence (Q13882 whole entry): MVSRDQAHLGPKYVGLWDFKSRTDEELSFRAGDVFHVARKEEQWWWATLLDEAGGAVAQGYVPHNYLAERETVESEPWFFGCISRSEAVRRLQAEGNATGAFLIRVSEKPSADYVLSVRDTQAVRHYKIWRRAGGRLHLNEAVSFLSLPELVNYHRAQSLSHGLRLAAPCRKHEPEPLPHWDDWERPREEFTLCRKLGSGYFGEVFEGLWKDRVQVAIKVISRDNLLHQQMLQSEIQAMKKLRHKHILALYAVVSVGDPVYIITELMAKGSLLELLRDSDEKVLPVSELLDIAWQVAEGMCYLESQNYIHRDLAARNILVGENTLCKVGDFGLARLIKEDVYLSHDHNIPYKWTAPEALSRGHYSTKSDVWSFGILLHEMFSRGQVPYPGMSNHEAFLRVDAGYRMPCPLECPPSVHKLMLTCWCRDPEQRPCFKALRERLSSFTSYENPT
T2 sequence (Q07912 whole entry): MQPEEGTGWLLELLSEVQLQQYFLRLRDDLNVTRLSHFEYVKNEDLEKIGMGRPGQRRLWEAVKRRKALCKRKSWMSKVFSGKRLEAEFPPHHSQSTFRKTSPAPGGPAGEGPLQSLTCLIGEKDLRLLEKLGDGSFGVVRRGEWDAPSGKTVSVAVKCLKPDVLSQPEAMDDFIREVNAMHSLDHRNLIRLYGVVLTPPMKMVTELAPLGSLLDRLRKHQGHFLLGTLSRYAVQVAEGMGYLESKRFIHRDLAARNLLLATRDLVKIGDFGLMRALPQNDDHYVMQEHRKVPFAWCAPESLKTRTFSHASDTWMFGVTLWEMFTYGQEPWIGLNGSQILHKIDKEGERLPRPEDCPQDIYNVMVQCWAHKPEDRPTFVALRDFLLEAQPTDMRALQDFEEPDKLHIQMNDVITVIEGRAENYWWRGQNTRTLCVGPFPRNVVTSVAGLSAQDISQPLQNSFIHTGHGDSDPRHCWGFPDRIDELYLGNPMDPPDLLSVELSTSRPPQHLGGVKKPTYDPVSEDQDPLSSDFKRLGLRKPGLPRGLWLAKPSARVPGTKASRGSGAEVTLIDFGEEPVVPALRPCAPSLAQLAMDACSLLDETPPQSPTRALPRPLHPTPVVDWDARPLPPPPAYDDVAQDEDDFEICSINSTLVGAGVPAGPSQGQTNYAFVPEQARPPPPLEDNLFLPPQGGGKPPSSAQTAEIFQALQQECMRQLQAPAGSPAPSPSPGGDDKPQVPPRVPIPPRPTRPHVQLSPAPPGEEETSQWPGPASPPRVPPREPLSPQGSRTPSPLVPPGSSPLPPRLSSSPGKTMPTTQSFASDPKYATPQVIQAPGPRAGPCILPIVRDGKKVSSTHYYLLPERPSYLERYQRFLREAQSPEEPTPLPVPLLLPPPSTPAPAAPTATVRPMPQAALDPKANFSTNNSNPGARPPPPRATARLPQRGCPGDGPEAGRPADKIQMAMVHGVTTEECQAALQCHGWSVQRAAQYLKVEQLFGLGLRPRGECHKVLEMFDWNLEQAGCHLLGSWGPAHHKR
T7 sequence (Q00536 whole entry): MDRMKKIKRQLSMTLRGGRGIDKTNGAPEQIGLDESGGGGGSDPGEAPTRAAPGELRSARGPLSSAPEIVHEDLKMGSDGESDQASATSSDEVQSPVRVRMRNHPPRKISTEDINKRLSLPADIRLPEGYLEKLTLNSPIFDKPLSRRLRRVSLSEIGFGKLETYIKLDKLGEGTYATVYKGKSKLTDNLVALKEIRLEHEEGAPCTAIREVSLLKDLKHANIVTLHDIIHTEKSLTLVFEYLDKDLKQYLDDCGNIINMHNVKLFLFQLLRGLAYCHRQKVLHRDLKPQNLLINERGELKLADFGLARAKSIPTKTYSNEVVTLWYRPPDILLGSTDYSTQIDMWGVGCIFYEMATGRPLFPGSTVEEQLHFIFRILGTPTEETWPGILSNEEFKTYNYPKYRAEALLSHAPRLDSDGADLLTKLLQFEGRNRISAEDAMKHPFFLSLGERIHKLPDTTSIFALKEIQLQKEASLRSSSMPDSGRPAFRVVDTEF
T9 sequence (P51812 1-397 limits assumed): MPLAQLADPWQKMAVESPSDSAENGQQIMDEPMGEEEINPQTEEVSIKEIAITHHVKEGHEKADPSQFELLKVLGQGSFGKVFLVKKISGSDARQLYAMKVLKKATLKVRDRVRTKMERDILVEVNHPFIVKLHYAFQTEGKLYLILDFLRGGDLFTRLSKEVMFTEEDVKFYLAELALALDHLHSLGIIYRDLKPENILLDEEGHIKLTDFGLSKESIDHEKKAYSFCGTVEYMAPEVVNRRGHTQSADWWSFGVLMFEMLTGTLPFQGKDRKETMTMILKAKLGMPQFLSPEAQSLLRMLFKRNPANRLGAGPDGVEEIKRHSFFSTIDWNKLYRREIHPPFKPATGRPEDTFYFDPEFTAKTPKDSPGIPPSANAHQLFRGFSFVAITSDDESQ
T3 sequence (O75914 whole entry): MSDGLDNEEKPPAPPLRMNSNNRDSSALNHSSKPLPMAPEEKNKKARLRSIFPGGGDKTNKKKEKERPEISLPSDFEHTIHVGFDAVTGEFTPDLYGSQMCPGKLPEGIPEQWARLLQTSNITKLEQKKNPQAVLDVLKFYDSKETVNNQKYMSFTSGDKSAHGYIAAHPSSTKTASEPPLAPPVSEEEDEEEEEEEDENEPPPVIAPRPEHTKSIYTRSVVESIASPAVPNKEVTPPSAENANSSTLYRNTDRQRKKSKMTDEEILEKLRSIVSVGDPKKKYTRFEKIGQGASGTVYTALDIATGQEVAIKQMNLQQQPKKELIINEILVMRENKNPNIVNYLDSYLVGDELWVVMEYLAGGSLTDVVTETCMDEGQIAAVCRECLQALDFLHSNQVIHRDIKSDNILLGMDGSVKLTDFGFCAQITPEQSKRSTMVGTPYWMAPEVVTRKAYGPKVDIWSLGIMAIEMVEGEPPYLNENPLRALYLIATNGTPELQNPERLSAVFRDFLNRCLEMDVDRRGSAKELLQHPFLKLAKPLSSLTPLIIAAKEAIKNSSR

Regarding `CN1CCN(c2ccc(Nc3nccc(-c4cnn5ncccc45)n3)cc2C#N)CC1` [Compound 1], the inhibition at 10 µM at RPS6KA6(Kin.Dom.1) came to 0%; on TNK2, 73.2%; on PAK3 it was 85.3%; on PTK6, 77%; on SLK, 98.1%; at PRKG2, 0%. Moreover, the inhibition at 10 µM at PCTK1 turned out to be 100%; at TRKA it was 91.3%; on RPS6KA3(Kin.Dom.1), 86%; on TLK1, 99.2%; on PAK1, 99.8%; at TYK2(Kin.Dom.2), 88.2%. Besides, the values for the inhibition at 10 µM on PLK3 and at PHKG1 were 0% and 88.3%, respectively.
As to `COc1ccc(Nc2nccc(-c3cnn4ncccc34)n2)cc1` [Compound 2], the inhibition at 10 µM at RPS6KA6(Kin.Dom.1) came to 0%; on TNK2 it was 78.1%; at PAK3, 0%; on PTK6, 0%; at SLK it was 77.9%; at PRKG2, 0%. For the same molecule, the inhibition at 10 µM is 100% on PCTK1; 0% at TRKA; 0% on RPS6KA3(Kin.Dom.1); 0% on TLK1; 0% at PAK1; 0% on TYK2(Kin.Dom.2). Further, the inhibition at 10 µM at PLK3 and on PHKG1 was 0% throughout.
Take `Cc1ccc(O)cc1Nc1ccnc(Nc2cccc(C(N)=O)c2)n1` [Compound 3]: the inhibition at 10 µM on RPS6KA6(Kin.Dom.1) turned out to be 0%; at TNK2, 98.8%; on PAK3, 0%; on PTK6, 100%; on SLK, 83.5%; on PRKG2, 0%. Besides, the inhibition at 10 µM amounted to 0% on PCTK1; 0% at TRKA; 0% at RPS6KA3(Kin.Dom.1); 0% on TLK1; 79.3% on PAK1; 94% at TYK2(Kin.Dom.2). For the same molecule, the inhibition at 10 µM at PLK3 stood at 79%; on PHKG1, 0%.
As for `Cc1ccc(O)cc1N(C)c1ccnc(Nc2cccc(S(N)(=O)=O)c2)n1` [Compound 4], the inhibition at 10 µM is 0% at RPS6KA6(Kin.Dom.1); 99.8% on TNK2; 0% at PAK3; 100% on PTK6; 99.5% at SLK; 0% on PRKG2. Further, the inhibition at 10 µM worked out at 96.9% at PCTK1; 0% on TRKA; 0% at RPS6KA3(Kin.Dom.1); 0% on TLK1; 98.5% at PAK1; 95.6% on TYK2(Kin.Dom.2). Besides, the inhibition at 10 µM on PLK3 and on PHKG1 was 0% throughout.
In the case of `Fc1cccc(COc2ccc(Nc3ncnc4c3CN(CCN3CCOCC3)CC4)cc2Cl)c1` [Compound 6], the inhibition at 10 µM on RPS6KA6(Kin.Dom.1), at TNK2, at PAK3, on PTK6, at SLK and at PRKG2 was 0% throughout. Also, the inhibition at 10 µM on PCTK1, on TRKA, on RPS6KA3(Kin.Dom.1), at TLK1, on PAK1 and on TYK2(Kin.Dom.2) was 0% in each case. For the same molecule, the inhibition at 10 µM at PLK3 and at PHKG1 was 0% throughout.
As for `COc1cc(Nc2nccc(-c3sc(N)nc3-c3cccc(NC(=O)c4c(F)cccc4F)c3)n2)cc(OC)c1OC` [Compound 7], the inhibition at 10 µM came to 83.2% at RPS6KA6(Kin.Dom.1); 100% on TNK2; 94.9% at PAK3; 100% at PTK6; 99.8% on SLK; 0% at PRKG2. The inhibition at 10 µM at PCTK1 worked out at 0%; at TRKA it was 0%; on RPS6KA3(Kin.Dom.1), 99.8%; at TLK1, 0%; at PAK1, 99.8%; on TYK2(Kin.Dom.2), 97.2%. The inhibition at 10 µM stood at 99.8% on PLK3 and 0% at PHKG1.
On to `C[C@@H](Oc1cc(-c2cnc3ccccn23)sc1C(N)=O)c1ccccc1Cl` [Compound 8], for which the inhibition at 10 µM at RPS6KA6(Kin.Dom.1) came to 0%; at TNK2, 0%; at PAK3, 0%; on PTK6 it was 0%; at SLK it was 100%; on PRKG2, 0%. The inhibition at 10 µM on PCTK1, at TRKA, on RPS6KA3(Kin.Dom.1), at TLK1, at PAK1 and at TYK2(Kin.Dom.2) was 0% in each case. The results for the inhibition at 10 µM on PLK3 and on PHKG1 were 95.6% and 0%, respectively.
Turning to `c1ccc(COc2cccc(-c3ccnc4[nH]ccc34)c2)cc1` [Compound 9], the inhibition at 10 µM at RPS6KA6(Kin.Dom.1), at TNK2, on PAK3, on PTK6, on SLK and on PRKG2 was 0% each time. For the same molecule, the inhibition at 10 µM on PCTK1, on TRKA, on RPS6KA3(Kin.Dom.1), at TLK1, at PAK1 and at TYK2(Kin.Dom.2) was 0% each time. In addition, the inhibition at 10 µM on PLK3 and at PHKG1 was 0% throughout.
